Laboratory results as given in the supplement of paper PMC5908809.

Legend:
IMC-1 (IL-2 20 ng/mL) [1] = test: drug sensitivity score (DSS) (DSS units); higher = more sensitive; extreme values may be limits of the assay; details: 72 h
[2] = system: normal primary NK cells, pool 3 (3 donors) (IL-2 2.5 ng/mL); test: as above; details: 72 h
YT (IL-2 2.5 ng/mL) [3] = test: as above; details: 72 h
NK-92 (IL-2 2.5 ng/mL) [4] = test: as above; details: 72 h
SNK-6 (IL-2 2.5 ng/mL) [5] = test: as above; details: 72 h
NK-YS (IL-2 2.5 ng/mL) [6] = test: as above; details: 72 h
NKL (IL-2 2.5 ng/mL) [7] = test: as above; details: 72 h
DERL-7 (IL-2 2.5 ng/mL) [8] = test: as above; details: 72 h
[9] = system: normal primary NK cells, pool 1 (3 donors) (IL-2 2.5 ng/mL); test: as above; details: 72 h
KHYG-1 (IL-2 2.5 ng/mL) [10] = test: as above; details: 72 h
[11] = system: normal primary NK cells, pool 1 (3 donors), resting (IL-2 0 ng/mL); test: as above; details: 72 h
KAI3 (IL-2 2.5 ng/mL) [12] = test: as above; details: 72 h
[13] = system: normal primary NK cells, pool 2 (3 donors) (IL-2 2.5 ng/mL); test: as above; details: 72 h
[14] = system: normal NK cells expanded with K562-aAPC; test: percent inhibition of viability; higher = more inhibition; details: 72 h, IL-2 2.5 ng/mL
Description: (§1)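 Drug sensitivity and resistance testing on K562-aAPC-expanded normal NK cells: 5 concentrations (10-fold steps over a 10,000-fold range), 72 h at 37 °C, viability by CellTiter-Glo normalised to DMSO and benzethonium chloride controls; DSS from the fitted curve.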

IMC-1 (IL-2 20 ng/mL) [15] = test: as above; details: 72 h
[16] = system: normal primary NK cells, pool 3 (3 donors) (IL-2 2.5 ng/mL); test: as above; details: 72 h
YT (IL-2 2.5 ng/mL) [17] = test: as above; details: 72 h
NK-92 (IL-2 2.5 ng/mL) [18] = test: as above; details: 72 h
SNK-6 (IL-2 2.5 ng/mL) [19] = test: as above; details: 72 h
NK-YS (IL-2 2.5 ng/mL) [20] = test: as above; details: 72 h
NKL (IL-2 2.5 ng/mL) [21] = test: as above; details: 72 h
DERL-7 (IL-2 2.5 ng/mL) [22] = test: as above; details: 72 h
[23] = system: normal primary NK cells, pool 1 (3 donors) (IL-2 2.5 ng/mL); test: as above; details: 72 h
KHYG-1 (IL-2 2.5 ng/mL) [24] = test: as above; details: 72 h
[25] = system: normal primary NK cells, pool 1 (3 donors), resting (IL-2 0 ng/mL); test: as above; details: 72 h
KAI3 (IL-2 2.5 ng/mL) [26] = test: as above; details: 72 h
[27] = system: normal primary NK cells, pool 2 (3 donors) (IL-2 2.5 ng/mL); test: as above; details: 72 h
[28] = system: normal NK cells expanded with K562-aAPC; test: drug sensitivity score (DSS) (DSS units); higher = more sensitive; extreme values may be limits of the assay; details: 72 h; IL-2 2.5 ng/mL
Description: as §1

## Cc1nc(Nc2ncc(C(=O)Nc3c(C)cccc3Cl)s2)cc(N2CCN(CCO)CC2)n1 [Dasatinib] (max concentration tested 1000 nM)
IMC-1 (IL-2 20 ng/mL) [1]
  drug sensitivity score: 0
[2]
  drug sensitivity score: 0
YT (IL-2 2.5 ng/mL) [3]
  drug sensitivity score: 4.71
NK-92 (IL-2 2.5 ng/mL) [4]
  drug sensitivity score: 0.7
SNK-6 (IL-2 2.5 ng/mL) [5]
  drug sensitivity score: 2.07
NK-YS (IL-2 2.5 ng/mL) [6]
  drug sensitivity score: 2.02
NKL (IL-2 2.5 ng/mL) [7]
  drug sensitivity score: 6.85
DERL-7 (IL-2 2.5 ng/mL) [8]
  drug sensitivity score: 1.68
[9]
  drug sensitivity score: 6.61
KHYG-1 (IL-2 2.5 ng/mL) [10]
  drug sensitivity score: 0.45
[11]
  drug sensitivity score: 0
KAI3 (IL-2 2.5 ng/mL) [12]
  drug sensitivity score: 2.92
[13]
  drug sensitivity score: 0
[14]; 0.1 nM
  percent inhibition of viability: -0.95%
[14]; 1 nM
  percent inhibition of viability: 4.04%
[14]; 10 nM
  percent inhibition of viability: 19.2%
[14]; 100 nM
  percent inhibition of viability: 3.69%
[14]; 1000 nM
  percent inhibition of viability: 18.7%
IMC-1 (IL-2 20 ng/mL) [15]; 0.1 nM
  percent inhibition of viability: -4.24%
IMC-1 (IL-2 20 ng/mL) [15]; 1 nM
  percent inhibition of viability: -3.41%
IMC-1 (IL-2 20 ng/mL) [15]; 10 nM
  percent inhibition of viability: -7.41%
IMC-1 (IL-2 20 ng/mL) [15]; 100 nM
  percent inhibition of viability: -6.36%
IMC-1 (IL-2 20 ng/mL) [15]; 1000 nM
  percent inhibition of viability: 8.01%
[16]; 0.1 nM
  percent inhibition of viability: 0.39%
[16]; 1 nM
  percent inhibition of viability: 14.8%
[16]; 10 nM
  percent inhibition of viability: -5.88%
[16]; 100 nM
  percent inhibition of viability: -19.1%
[16]; 1000 nM
  percent inhibition of viability: -19.4%
YT (IL-2 2.5 ng/mL) [17]; 0.1 nM
  percent inhibition of viability: -6.9%
YT (IL-2 2.5 ng/mL) [17]; 1 nM
  percent inhibition of viability: -3.71%
YT (IL-2 2.5 ng/mL) [17]; 10 nM
  percent inhibition of viability: 0.56%
YT (IL-2 2.5 ng/mL) [17]; 100 nM
  percent inhibition of viability: 23%
YT (IL-2 2.5 ng/mL) [17]; 1000 nM
  percent inhibition of viability: 39.6%
NK-92 (IL-2 2.5 ng/mL) [18]; 0.1 nM
  percent inhibition of viability: -15.2%
NK-92 (IL-2 2.5 ng/mL) [18]; 1 nM
  percent inhibition of viability: -20%
NK-92 (IL-2 2.5 ng/mL) [18]; 10 nM
  percent inhibition of viability: -16.4%
NK-92 (IL-2 2.5 ng/mL) [18]; 100 nM
  percent inhibition of viability: -1%
NK-92 (IL-2 2.5 ng/mL) [18]; 1000 nM
  percent inhibition of viability: 22.6%
SNK-6 (IL-2 2.5 ng/mL) [19]; 0.1 nM
  percent inhibition of viability: 26.1%
SNK-6 (IL-2 2.5 ng/mL) [19]; 1 nM
  percent inhibition of viability: -6.71%
SNK-6 (IL-2 2.5 ng/mL) [19]; 10 nM
  percent inhibition of viability: -10.2%
SNK-6 (IL-2 2.5 ng/mL) [19]; 100 nM
  percent inhibition of viability: 3.42%
SNK-6 (IL-2 2.5 ng/mL) [19]; 1000 nM
  percent inhibition of viability: 33.2%
NK-YS (IL-2 2.5 ng/mL) [20]; 0.1 nM
  percent inhibition of viability: -0.77%
NK-YS (IL-2 2.5 ng/mL) [20]; 1 nM
  percent inhibition of viability: -3.69%
NK-YS (IL-2 2.5 ng/mL) [20]; 10 nM
  percent inhibition of viability: 1.85%
NK-YS (IL-2 2.5 ng/mL) [20]; 100 nM
  percent inhibition of viability: 9.09%
NK-YS (IL-2 2.5 ng/mL) [20]; 1000 nM
  percent inhibition of viability: 26.2%
NKL (IL-2 2.5 ng/mL) [21]; 0.1 nM
  percent inhibition of viability: -6.62%
NKL (IL-2 2.5 ng/mL) [21]; 1 nM
  percent inhibition of viability: -1.79%
NKL (IL-2 2.5 ng/mL) [21]; 10 nM
  percent inhibition of viability: 12%
NKL (IL-2 2.5 ng/mL) [21]; 100 nM
  percent inhibition of viability: 30.8%
NKL (IL-2 2.5 ng/mL) [21]; 1000 nM
  percent inhibition of viability: 50.2%
DERL-7 (IL-2 2.5 ng/mL) [22]; 0.1 nM
  percent inhibition of viability: 2.24%
DERL-7 (IL-2 2.5 ng/mL) [22]; 1 nM
  percent inhibition of viability: 8.32%
DERL-7 (IL-2 2.5 ng/mL) [22]; 10 nM
  percent inhibition of viability: 14.1%
DERL-7 (IL-2 2.5 ng/mL) [22]; 100 nM
  percent inhibition of viability: 5.36%
DERL-7 (IL-2 2.5 ng/mL) [22]; 1000 nM
  percent inhibition of viability: 23.2%
[23]; 0.1 nM
  percent inhibition of viability: -0.11%
[23]; 1 nM
  percent inhibition of viability: 19.3%
[23]; 10 nM
  percent inhibition of viability: 13.1%
[23]; 100 nM
  percent inhibition of viability: 15.4%
[23]; 1000 nM
  percent inhibition of viability: 19.5%
KHYG-1 (IL-2 2.5 ng/mL) [24]; 0.1 nM
  percent inhibition of viability: -4.78%
KHYG-1 (IL-2 2.5 ng/mL) [24]; 1 nM
  percent inhibition of viability: -5.41%
KHYG-1 (IL-2 2.5 ng/mL) [24]; 10 nM
  percent inhibition of viability: 2.42%
KHYG-1 (IL-2 2.5 ng/mL) [24]; 100 nM
  percent inhibition of viability: 4.68%
KHYG-1 (IL-2 2.5 ng/mL) [24]; 1000 nM
  percent inhibition of viability: 15%
[25]; 0.1 nM
  percent inhibition of viability: -8.65%
[25]; 1 nM
  percent inhibition of viability: 23.5%
[25]; 10 nM
  percent inhibition of viability: 15.4%
[25]; 100 nM
  percent inhibition of viability: 12.1%
[25]; 1000 nM
  percent inhibition of viability: 3.61%
KAI3 (IL-2 2.5 ng/mL) [26]; 0.1 nM
  percent inhibition of viability: -0.36%
KAI3 (IL-2 2.5 ng/mL) [26]; 1 nM
  percent inhibition of viability: 1.21%
KAI3 (IL-2 2.5 ng/mL) [26]; 10 nM
  percent inhibition of viability: 4.62%
KAI3 (IL-2 2.5 ng/mL) [26]; 100 nM
  percent inhibition of viability: 14.5%
KAI3 (IL-2 2.5 ng/mL) [26]; 1000 nM
  percent inhibition of viability: 34%
[27]; 0.1 nM
  percent inhibition of viability: -3.84%
[27]; 1 nM
  percent inhibition of viability: 18.3%
[27]; 10 nM
  percent inhibition of viability: 1.6%
[27]; 100 nM
  percent inhibition of viability: 0.44%
[27]; 1000 nM
  percent inhibition of viability: 6.62%
[28]
  drug sensitivity score: 1.3
